According to article PMC12399242 (Acta Pharmaceutica Sinica. B, 2025):
Where two headings read alike, the source gives them in different places.

Key:
[1] = system: MT-4 cells; settings: cited from earlier work
[2] = system: HIV-1 Y181C; assay: Antiviral activity against HIV-1 mutant Y181C in MT-4 cells; assay type: cell-based; settings: Human immunodeficiency virus 1, MT4, read-out: EC50 Y181C
[3] = target: CYP3A4-M (Homo sapiens, UniProt P08684); settings: read-out: IC50 CYP3A4-M; cited from earlier work
[4] = comparison values; cited from earlier work
[5] = system: HIV-1 E138K; assay: Antiviral activity against HIV-1 mutant E138K in MT-4 cells; assay type: cell-based; settings: Human immunodeficiency virus 1, MT4, read-out: EC50 E138K
[6] = system: HIV-1 K103N + Y181C (RES056); assay: Antiviral activity against HIV-1 double mutant K103N + Y181C (RES056) in MT-4 cells; assay type: cell-based; settings: Human immunodeficiency virus 1, MT4, read-out: EC50 K103N + Y181C
[7] = human liver microsomes; cited from earlier work
[8] = system: HIV-1 L100I; assay: Antiviral activity against HIV-1 mutant L100I in MT-4 cells; assay type: cell-based; settings: Human immunodeficiency virus 1, MT4, read-out: EC50 L100I
[9] = system: HIV-1 K103N; assay: Antiviral activity against HIV-1 mutant K103N in MT-4 cells; assay type: cell-based; settings: Human immunodeficiency virus 1, MT4, read-out: EC50 K103N
[10] = system: HIV-1 F227L + V106A; assay: microbe, parasite or virus in culture; assay type: cell-based; settings: Human immunodeficiency virus 1, MT4, read-out: EC50 F227L + V106A
[11] = system: HIV-1 (IIIB); assay: microbe, parasite or virus in culture; assay type: cell-based; settings: for EC50: Human immunodeficiency virus 1, IIIB, MT4, WT HIV-1, protection of MT-4 cells against HIV-induced cytopathogenicity, mean ± SD, n ≥ 3
From the text: (§1) Inspired by our previous research on heteroaromatic-biphenyl-DAPYs[15], the 4-cyanophenyl group on the biphenyl moiety was replaced with a privileged 4-pyridyl group for further evaluation.

[12] = in vitro; settings: human, CC50
From the text: as §1

[13] = system: HIV-1 K103N + Y181C (RES056); settings: cited from earlier work
[14] = system: HIV-1 (IIIB); settings: earlier compounds of Fig. 1 / introduction, cited from earlier work
[15] = system: HIV-1 F227L + V106A; settings: cited from earlier work
[16] = system: HIV-1 Y188L; assay: Antiviral activity against HIV-1 mutant Y188L in MT-4 cells; assay type: cell-based; settings: Human immunodeficiency virus 1, MT4, read-out: EC50 Y188L
[17] = system: HIV-1 Y188L; settings: cited from earlier work

Chain of CYP3A4-M (P08684 whole entry): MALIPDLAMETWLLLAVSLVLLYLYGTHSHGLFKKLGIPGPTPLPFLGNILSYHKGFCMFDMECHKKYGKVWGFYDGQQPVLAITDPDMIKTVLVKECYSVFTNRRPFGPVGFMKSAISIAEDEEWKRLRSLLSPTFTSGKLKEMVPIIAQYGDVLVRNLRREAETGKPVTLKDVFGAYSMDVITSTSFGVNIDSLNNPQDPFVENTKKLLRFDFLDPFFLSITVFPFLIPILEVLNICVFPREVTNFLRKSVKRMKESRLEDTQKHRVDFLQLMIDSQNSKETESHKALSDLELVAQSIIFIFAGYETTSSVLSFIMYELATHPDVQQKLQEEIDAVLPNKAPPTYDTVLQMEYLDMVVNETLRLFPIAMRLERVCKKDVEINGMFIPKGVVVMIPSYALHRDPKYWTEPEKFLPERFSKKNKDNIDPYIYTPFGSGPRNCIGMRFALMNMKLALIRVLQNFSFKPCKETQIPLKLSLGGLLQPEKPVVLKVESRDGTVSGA

| Structure (SMILES) | EC50 [2] | EC50 [5] | EC50 [6] | EC50 [8] | EC50 [9] | EC50 [10] | EC50 [11] | CC50 [12] | other results |
| --- | --- | --- | --- | --- | --- | --- | --- | --- | --- |
| Cc1cc(C#N)cc(C)c1Oc1nc(Nc2ccc(C#N)cc2)nc(N)c1Br [ETR, etravirine, reference compound] | 13 ± 2.8 nM | 7.6 ± 2.3 nM | 44 ± 23 nM | 4.4 ± 1.6 nM | 2.8 ± 0.7 nM | 12 ± 9.4 nM | 3.2 ± 0.7 nM | > 4600 nM | CC50 ([1]; introduction): ~5000 nM; IC50 [3]: 41300 nM; F (oral bioavailability) [4]: undetectable; CLint(liver) [7]: 19.0 mL/min/kg; CLint(mic) [7]: 21.1 µL/min/mg; t1/2 [7]: 1.09 h |
| Cc1cnc(Nc2ccc(C#N)cc2)nc1Nc1c(F)cc(-c2ccc(C#N)cc2)cc1F [compound 6, reference compound] | 11 ± 1.9 nM | 8.3 ± 1.5 nM | > 2000 nM | 16 ± 5.3 nM | 5.4 ± 1.8 nM | > 2000 nM | 1.4 ± 0.3 nM | > 285000 nM | EC50 [13]: > 2000 nM; EC50 ([14]; WT HIV-1): 1.4 nM; SI [14]: > 208,333; CC50 ([1]; earlier compounds of Fig. 1 / introduction): > 285000 nM; SI (IIIB) ([11]; selectivity index, ratio CC50/EC50): >208,333; EC50 [15]: > 2000 nM; EC50 [16]: > 2000 nM; EC50 [17]: > 2000 nM |
